Test results from ChEMBL document CHEMBL5465560, “Selectivity Literature for EUbOPEN Chemogenomic Library” (2024).
Each block holds one compound with its values, some of them ahead of it.

Legend:
[1] = target: T1, Dual specificity mitogen-activated protein kinase kinase 6 (Homo sapiens) (UniProt P52564); experiment: Selectivity interaction (Kinase panel (Invitrogen)) EUB0000639a MAP2K6; settings: at 200 nM
T1 sequence (whole entry): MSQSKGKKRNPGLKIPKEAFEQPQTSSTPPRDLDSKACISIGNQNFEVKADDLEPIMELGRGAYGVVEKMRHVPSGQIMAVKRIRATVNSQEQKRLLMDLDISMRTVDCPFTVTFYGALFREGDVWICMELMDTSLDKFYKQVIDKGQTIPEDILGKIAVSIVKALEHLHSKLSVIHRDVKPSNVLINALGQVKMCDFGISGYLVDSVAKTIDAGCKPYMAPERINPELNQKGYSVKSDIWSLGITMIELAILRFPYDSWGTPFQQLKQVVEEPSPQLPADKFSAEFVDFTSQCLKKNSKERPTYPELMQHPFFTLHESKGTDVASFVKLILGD

[2] = target: T2, Dual serine/threonine and tyrosine protein kinase (Homo sapiens) (UniProt Q6XUX3); experiment: Selectivity interaction (KinomeScan (DiscoverX)) EUB0000695a DSTYK; settings: at 100 nM
T2 sequence (whole entry): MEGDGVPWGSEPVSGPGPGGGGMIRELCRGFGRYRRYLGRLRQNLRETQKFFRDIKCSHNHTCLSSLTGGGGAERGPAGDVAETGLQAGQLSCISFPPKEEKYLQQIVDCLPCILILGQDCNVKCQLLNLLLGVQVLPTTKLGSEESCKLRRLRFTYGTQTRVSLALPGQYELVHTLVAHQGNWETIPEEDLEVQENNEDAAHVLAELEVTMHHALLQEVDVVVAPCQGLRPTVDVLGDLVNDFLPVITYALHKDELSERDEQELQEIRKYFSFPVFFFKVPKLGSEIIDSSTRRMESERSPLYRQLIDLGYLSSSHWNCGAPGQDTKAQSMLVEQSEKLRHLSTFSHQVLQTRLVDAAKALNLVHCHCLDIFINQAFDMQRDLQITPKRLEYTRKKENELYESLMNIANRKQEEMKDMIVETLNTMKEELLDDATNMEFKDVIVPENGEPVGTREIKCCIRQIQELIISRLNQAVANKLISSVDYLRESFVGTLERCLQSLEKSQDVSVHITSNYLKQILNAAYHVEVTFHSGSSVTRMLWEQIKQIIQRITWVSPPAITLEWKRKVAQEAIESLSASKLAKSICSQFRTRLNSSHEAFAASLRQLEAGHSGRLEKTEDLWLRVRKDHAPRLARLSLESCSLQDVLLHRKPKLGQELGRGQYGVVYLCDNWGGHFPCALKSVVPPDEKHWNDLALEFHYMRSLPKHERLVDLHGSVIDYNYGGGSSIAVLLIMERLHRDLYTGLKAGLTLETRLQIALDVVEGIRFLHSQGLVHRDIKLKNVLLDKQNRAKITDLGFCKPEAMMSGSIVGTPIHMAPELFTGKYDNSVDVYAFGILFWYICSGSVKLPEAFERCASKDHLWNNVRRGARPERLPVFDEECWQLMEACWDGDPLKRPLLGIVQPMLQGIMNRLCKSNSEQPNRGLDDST

[3] = target: T3, Mitogen-activated protein kinase kinase kinase kinase 2 (Homo sapiens) (UniProt Q12851); experiment: Selectivity interaction (Ambit KINOMEscan and KiNATiv profiling in Jurkat cells) EUB0000090b MAP4K2; format: cell-based; settings: at 1 µM
T3 sequence (whole entry): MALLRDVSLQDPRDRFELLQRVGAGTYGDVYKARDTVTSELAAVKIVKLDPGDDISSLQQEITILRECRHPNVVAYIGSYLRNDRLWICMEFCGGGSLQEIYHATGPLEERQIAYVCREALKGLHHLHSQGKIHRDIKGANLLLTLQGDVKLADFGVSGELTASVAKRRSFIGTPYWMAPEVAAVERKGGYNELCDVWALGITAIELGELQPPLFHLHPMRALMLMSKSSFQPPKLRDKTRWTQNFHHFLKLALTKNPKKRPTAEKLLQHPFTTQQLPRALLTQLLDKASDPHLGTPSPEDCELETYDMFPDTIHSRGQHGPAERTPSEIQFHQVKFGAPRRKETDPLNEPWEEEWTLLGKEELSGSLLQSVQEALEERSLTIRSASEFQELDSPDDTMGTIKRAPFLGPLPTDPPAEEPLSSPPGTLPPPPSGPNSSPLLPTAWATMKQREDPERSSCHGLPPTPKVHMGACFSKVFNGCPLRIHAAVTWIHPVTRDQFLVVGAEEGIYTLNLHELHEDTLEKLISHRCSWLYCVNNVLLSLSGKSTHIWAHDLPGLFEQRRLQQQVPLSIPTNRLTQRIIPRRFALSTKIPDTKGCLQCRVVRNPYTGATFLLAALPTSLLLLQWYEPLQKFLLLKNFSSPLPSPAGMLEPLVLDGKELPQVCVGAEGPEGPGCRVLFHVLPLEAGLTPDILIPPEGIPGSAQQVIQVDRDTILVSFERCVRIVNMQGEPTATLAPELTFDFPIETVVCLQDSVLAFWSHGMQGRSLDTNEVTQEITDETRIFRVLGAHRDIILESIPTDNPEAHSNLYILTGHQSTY

[4] = target: Serine/threonine-protein kinase WNK1 (Homo sapiens) (UniProt Q9H4A3); experiment: Selectivity interaction (KinomeScan (DiscoverX)) EUB0000229b WNK1; settings: at 10 µM
[5] = target: Glycogen synthase kinase-3 alpha (Homo sapiens, UniProt P49840); experiment: Selectivity interaction (ActivX KiNativ screen (ex vivo kinase selectivity in human PBMCs)) EUB0001619a GSK3A; format: cell-based; settings: PBMC, at 1 µM
Glycogen synthase kinase-3 alpha, sequence (P49840 2-483 limits assumed): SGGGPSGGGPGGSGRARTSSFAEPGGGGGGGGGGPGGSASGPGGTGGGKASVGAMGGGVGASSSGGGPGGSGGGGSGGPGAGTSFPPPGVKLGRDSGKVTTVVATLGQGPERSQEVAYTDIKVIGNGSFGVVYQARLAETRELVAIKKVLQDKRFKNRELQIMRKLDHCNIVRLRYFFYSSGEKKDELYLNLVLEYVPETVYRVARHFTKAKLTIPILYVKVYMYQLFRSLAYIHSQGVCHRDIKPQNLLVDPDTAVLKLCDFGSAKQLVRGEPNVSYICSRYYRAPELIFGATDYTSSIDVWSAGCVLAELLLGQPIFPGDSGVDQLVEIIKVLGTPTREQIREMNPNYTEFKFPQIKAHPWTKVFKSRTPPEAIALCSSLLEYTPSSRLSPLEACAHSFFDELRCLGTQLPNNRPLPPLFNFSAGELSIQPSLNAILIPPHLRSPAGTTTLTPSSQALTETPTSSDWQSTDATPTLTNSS

Serine/threonine-protein kinase WNK1 (Homo sapiens), sequence (Q9H4A3 whole entry, looked up): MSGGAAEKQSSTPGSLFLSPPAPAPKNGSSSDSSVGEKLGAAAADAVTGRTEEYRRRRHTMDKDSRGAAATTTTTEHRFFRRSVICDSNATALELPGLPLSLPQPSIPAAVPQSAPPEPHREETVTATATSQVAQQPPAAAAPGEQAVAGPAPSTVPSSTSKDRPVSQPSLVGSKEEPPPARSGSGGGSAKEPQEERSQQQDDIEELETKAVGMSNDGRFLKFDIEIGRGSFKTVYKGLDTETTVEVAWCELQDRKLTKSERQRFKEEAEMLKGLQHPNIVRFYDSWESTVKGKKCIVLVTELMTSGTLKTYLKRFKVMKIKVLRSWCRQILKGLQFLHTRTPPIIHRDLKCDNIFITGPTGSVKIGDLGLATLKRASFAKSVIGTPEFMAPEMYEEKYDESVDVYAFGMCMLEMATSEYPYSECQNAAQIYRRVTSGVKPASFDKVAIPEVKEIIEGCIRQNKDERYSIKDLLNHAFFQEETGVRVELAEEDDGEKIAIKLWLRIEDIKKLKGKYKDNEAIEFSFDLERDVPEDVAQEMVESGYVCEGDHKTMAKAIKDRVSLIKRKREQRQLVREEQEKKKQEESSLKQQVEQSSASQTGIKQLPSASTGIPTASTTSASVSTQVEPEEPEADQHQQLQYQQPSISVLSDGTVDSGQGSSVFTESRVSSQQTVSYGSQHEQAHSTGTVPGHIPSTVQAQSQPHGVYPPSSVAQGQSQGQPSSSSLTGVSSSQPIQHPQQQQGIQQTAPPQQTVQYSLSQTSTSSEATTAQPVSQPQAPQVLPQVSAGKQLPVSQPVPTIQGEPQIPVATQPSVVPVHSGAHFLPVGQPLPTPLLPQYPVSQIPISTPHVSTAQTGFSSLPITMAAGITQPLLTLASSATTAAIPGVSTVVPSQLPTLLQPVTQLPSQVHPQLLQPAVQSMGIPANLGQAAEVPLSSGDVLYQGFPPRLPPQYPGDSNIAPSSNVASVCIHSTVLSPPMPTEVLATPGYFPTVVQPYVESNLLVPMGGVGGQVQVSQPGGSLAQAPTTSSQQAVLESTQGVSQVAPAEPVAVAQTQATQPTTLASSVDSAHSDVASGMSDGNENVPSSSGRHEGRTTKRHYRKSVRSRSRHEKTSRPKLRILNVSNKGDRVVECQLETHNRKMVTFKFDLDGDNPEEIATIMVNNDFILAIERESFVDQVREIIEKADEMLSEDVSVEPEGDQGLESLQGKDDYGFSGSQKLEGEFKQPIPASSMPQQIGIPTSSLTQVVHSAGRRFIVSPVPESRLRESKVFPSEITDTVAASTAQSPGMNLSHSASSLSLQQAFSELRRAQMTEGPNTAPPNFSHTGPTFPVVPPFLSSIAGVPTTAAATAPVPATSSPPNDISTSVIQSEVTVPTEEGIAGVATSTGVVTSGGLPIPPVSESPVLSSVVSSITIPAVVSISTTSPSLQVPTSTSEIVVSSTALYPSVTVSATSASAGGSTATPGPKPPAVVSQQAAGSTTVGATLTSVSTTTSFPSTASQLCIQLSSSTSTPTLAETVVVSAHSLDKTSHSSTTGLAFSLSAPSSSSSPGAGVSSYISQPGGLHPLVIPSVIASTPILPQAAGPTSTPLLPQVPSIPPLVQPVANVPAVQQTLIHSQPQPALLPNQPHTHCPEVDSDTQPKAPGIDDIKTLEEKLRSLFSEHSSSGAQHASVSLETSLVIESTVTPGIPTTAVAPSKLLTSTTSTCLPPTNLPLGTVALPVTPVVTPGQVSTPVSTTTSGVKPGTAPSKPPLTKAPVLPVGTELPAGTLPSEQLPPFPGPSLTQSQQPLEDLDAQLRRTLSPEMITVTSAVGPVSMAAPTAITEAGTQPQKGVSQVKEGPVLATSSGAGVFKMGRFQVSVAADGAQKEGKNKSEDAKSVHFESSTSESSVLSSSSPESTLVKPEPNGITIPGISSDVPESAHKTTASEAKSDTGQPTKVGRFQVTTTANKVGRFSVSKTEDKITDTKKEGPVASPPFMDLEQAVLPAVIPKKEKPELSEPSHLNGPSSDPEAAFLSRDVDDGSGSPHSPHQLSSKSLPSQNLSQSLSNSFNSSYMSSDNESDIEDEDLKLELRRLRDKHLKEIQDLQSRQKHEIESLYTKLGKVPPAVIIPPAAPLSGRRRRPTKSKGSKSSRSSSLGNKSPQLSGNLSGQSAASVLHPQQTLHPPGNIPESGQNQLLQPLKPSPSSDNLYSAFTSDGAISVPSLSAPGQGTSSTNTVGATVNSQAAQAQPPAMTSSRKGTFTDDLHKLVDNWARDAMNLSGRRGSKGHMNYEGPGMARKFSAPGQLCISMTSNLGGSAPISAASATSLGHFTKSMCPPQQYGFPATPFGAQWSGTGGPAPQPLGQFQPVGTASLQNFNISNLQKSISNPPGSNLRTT

- % of inhibition [1]: 4.3%
Structure (SMILES): CC[C@@H]1[C@H](F)C(=O)N[C@@H]1COc1nccc2cc(C(N)=O)c(OC)cc12 [ZIMLOVISERTIB]

Structure (SMILES): Cc1cc(F)c(C(=O)Nc2cccc(-c3nncn3C(C)C)n2)cc1-n1cnc(C2CC2)c1
- % of control [2]: 79%

Structure (SMILES): CN(C)C/C=C/C(=O)Nc1ccc(C(=O)N2CCCC(Nc3ncc(Cl)c(-c4c[nH]c5ccccc45)n3)C2)cc1 (stereo not given)
- % of control [3]: 100%

Structure (SMILES): COc1cc(N(C)c2ccnc3ccc(C(F)(F)F)cc23)cc(OC)c1OC
- % binding [4]: 72%

Structure (SMILES): N#Cc1cccc(-c2c[nH]c3ncnc(N4CCOCC4)c23)c1
- % of inhibition [5]: 7%
